Values quoted from earlier work in patent US9211338B2, “Composition and method for treating HPV” (Universite Libre de Bruxelles, priority 2011, dated 2015).
Read-outs that look alike come from different tables or passages of the source.

Key:
HPV-positive cells = details: in vitro

Structure (SMILES): Nc1ccn(C[C@@H](CO)OCP(=O)(O)O)c(=O)n1 [cidofovir]
- inhibition of cell proliferation (HPV-positive cells): concentration- and time-dependent inhibition of cell proliferation
- clinical outcome (HPV; intravenous (systemic), disseminated papillomatosis): stabilization of disseminated papillomatosis
- clinical outcome (HPV; local intratumor injections, patients with papillomatous lesions): complete regression of the tumor
